Test results reported in patent US20200399329A1, “ANTIMICROBIAL PEPTIDES” (priority 2015, published 2020).
In brackets after ≈: the same amount, converted by molar mass. Blank lines part the entries; values can stand above or below the compound they belong to. Where a SMILES comes first, the peptide text is derived from it. Bridges are numbered along the chain shown (N, C = ends). Where no end group is shown, it is not given here.

Legend:
P. aeruginosa BAA-2795 = assay type: cell-based, Pseudomonas aeruginosa
Protocol: (§1) In order to determine the MIC values of the peptides, growth and inhibition of various bacteria were monitored after treatment with the peptides of the invention (Table B). E. coli, K. pneumoniae, P. aeruginosa and Salmonella bacteria were cultured at 37° C. and at 5×10^6 CFU/ml in a standard 96-well-plate, in Mueller Hinton broth. […] The growth of the bacteria was continuously monitored via spectrophotometry at a wave-length of 625 nm. As bacterial growth progresses, Optical density at 625 nm (OD625 nm) values increase, and where the bacterial growth is inhibited, OD625 nm values remain constant. The experimental system and parameters described herein were used to determine the MIC values of OMN3, OMN5, OMN8 and OMN9 on various bacteria strains (Table B). Using the standard MHB MIC testing for antibiotic activity

E. coli strains = assay type: cell-based
Protocol: as §1

P. aeruginosa BAA-2110 [1] = assay type: cell-based, Pseudomonas aeruginosa
Protocol: (§2) In order to determine the MIC values of the peptides, growth and inhibition of various bacteria were monitored after treatment with the peptides of the invention (Table 6).
(§3) E. coli bacteria were cultured with or without OMN6 in increasing concentrations of 0.8-200 μM and with or without Fetal Bovine Serum 10% for 17-20 hours. The growth of the bacteria was continuously monitored via spectrophotometry at 600 nm. As bacterial growth progresses, OD600 nm values rise, and where the growth is inhibited OD600 nm values remain constant.
(§4) The experimental system and parameters described here were used to determine the MIC values of OMN2, OMN6, OMN7 and OMN11 on various bacteria strains (Table 7 and Table 8).

P. aeruginosa BAA-2110 [2] = assay type: cell-based, Pseudomonas aeruginosa; remark: listed apart in the source
Protocol: (§5) In order to determine the Minimal Bactericidal Concentration (MBC) values of the peptides, colony formation of various bacteria strains was monitored and determined after treatment with the peptides of the invention. Multi-Drug Resistant A. baumannii bacteria were cultured with or without OMN6 in increasing concentrations, as is detailed in FIG. 6 and Example 6. Immediately afterwards, samples of each experimental group were diluted to 1×10^4 to 1×10^6 as necessary, and further, the samples were plated on appropriate medium-agar plates. All the plates were incubated at 37° C. for 24-48 hours. Colonies were counted and CFU/ml in the original sample, prior to plating, were calculated and determined. An example of the plates, after incubation, is presented in FIG. 7 where the plate on the left side of the image is the CTRL sample treated with DDW and in the right side of the image increasing concentrations of OMN6 are presented, as specified therein.
(§6) The experimental system and parameters described here were used to determine the MBC values of OMN2, OMN6, OMN7 and OMN11 on various bacteria strains with and without the supplementation of 10% FBS (Table 6 and Table 8).

E. coli CR BAA-2452 = assay type: cell-based, Escherichia coli
Protocol: as §1

E. coli ESBL BAA-198 = assay type: cell-based, Escherichia coli
Protocol: as §1

[3] = test system: E. coli Sens. 25922 QC strain; assay type: cell-based, Escherichia coli
Protocol: as §1

K. pneu NDM1 BAA-2473 = assay type: cell-based, Klebsiella pneumoniae
Protocol: as §1

E. coli Sens. 25922 [4] = assay type: cell-based, Escherichia coli; settings: Sens. 25922
Protocol: as §2, §3, §4

E. coli Sens. 25922 [5] = assay type: cell-based, Escherichia coli
Protocol: as §5, §6

Proteinase-K = Proteinase-K (Parengyodontium album, UniProt P06873); assay: Proteinase-K (ProtK) proteolysis stability, Coommassie Blue stained gel; assay type: in vitro ADME; settings: 10 μg protein, 2 hours at 37° C.
Protocol: Proteinase-K (ProtK) was used to assess the stability of OMN6 versus native Cecropin A (CecA) and Bovine Serum Albumin (BSA) (See FIG. 1 A). 10 μg of each protein were incubated with increasing concentrations of between 5-20 ng of ProtK as specified, for 2 hours at 37° C. Samples were boiled at 100° C. for five minutes and separated on 15% acrylamide gel. The gel was then stained with Coommassie Blue and excess dye was removed over-night. […] In lane 2, the CecA band was weaker than the untreated sample band in lane 1. In lane 8, fragments of degraded BSA were detected, evidence of partial degradation.
The same experimental system as described above was used to assess the stability of OMN2, OMN7 and OMN11 against proteolytic degradation by ProtK (see FIG. 1B).

Sequence of Proteinase-K (P06873 106-384, species assumed): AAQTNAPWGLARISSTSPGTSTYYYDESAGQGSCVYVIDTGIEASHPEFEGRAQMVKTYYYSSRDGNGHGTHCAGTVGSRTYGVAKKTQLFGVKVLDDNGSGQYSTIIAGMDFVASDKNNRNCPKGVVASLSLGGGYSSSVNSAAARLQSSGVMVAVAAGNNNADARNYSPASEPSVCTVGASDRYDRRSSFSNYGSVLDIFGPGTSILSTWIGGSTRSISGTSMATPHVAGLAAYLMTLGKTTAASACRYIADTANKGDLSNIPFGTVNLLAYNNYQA

Compound: CC[C@H](C)[C@@H]1NC(=O)[C@H](C)NC(=O)[C@H](C)NC(=O)[C@H](C)NC(=O)[C@H](CCC(N)=O)NC(=O)CNC(=O)[C@H](C(C)C)NC(=O)[C@H]([C@@H](C)O)NC(=O)[C@H](C)NC(=O)[C@H](C(C)C)NC(=O)[C@H](C)NC(=O)[C@@H]2CCCN2C(=O)[C@H](C)NC(=O)[C@H](C)NC(=O)[C@H](CO)NC(=O)[C@H]([C@@H](C)O)NC(=O)[C@H](C(C)C)NC(=O)[C@H](C)NC(=O)[C@H](CC(=O)O)NC(=O)[C@H](CCCNC(=N)N)NC(=O)[C@H](C(C)C)NC(=O)[C@H](CCCNC(=N)N)NC(=O)[C@H](CCC(N)=O)NC(=O)CNC(=O)[C@H](C)NC(=O)[C@H](CCCNC(=N)N)NC(=O)[C@H](CCC(=O)O)NC(=O)[C@H](CC(C)C)NC(=O)[C@H](CCC(=O)O)NC(=O)[C@H](CCCCN)NC(=O)[C@H](Cc2ccccc2)NC(=O)[C@@H]2CCCN2C(=O)[C@H](CC(N)=O)NC(=O)[C@H](Cc2c[nH]c3ccccc23)NC(=O)[C@@H](NC(=O)[C@@H](N)CCSC)CSSC[C@@H](C(=O)O)NC(=O)[C@H](CCCNC(=N)N)NC(=O)[C@H](C)NC1=O [OMN3] (H-MCWNPFKELERAGQRVRDAVTSAAPAVATVGQAAAIARC-OH; disulfide 2-39; N-terminus and C-terminus assumed)
MIC (P. aeruginosa BAA-2795): 256 µg/mL (≈ 62.2 µM) | MIC for E. coli strains (E. coli strains): above 256 μg/mL

Compound: CC[C@H](C)[C@@H]1NC(=O)[C@H](C)NC(=O)[C@H](CC(=O)O)NC(=O)[C@H](CCCNC(=N)N)NC(=O)[C@H](C(C)C)NC(=O)[C@H](CCCNC(=N)N)NC(=O)[C@H](CCC(N)=O)NC(=O)CNC(=O)[C@H](C)NC(=O)[C@H](CCCNC(=N)N)NC(=O)[C@H](CCC(=O)O)NC(=O)[C@H](CC(C)C)NC(=O)[C@H](CCC(=O)O)NC(=O)[C@H](CCCCN)NC(=O)[C@H](Cc2ccccc2)NC(=O)[C@@H]2CCCN2C(=O)[C@H](CC(N)=O)NC(=O)[C@H](Cc2c[nH]c3ccccc23)NC(=O)[C@@H](NC(=O)[C@@H](N)CCSC)CSSC[C@@H](C(=O)O)NC(=O)[C@H](CCCCN)NC(=O)[C@H](C)NC(=O)[C@H](CC(C)C)NC(=O)[C@H](C)NC(=O)[C@H]([C@@H](C)O)NC(=O)[C@H](C)NC(=O)[C@H](CCC(N)=O)NC(=O)[C@H](C)NC(=O)[C@H](C(C)C)NC(=O)[C@H]([C@@H](C)O)NC(=O)[C@H](C)NC(=O)[C@H](C(C)C)NC(=O)[C@H](C)NC(=O)[C@@H]2CCCN2C(=O)CNC(=O)[C@H](C)NC(=O)[C@H](CO)NC(=O)[C@H]([C@@H](C)CC)NC1=O [OMN5] (H-MCWNPFKELERAGQRVRDAIISAGPAVATVAQATALAKC-OH; disulfide 2-39; N-terminus and C-terminus assumed)
MIC (P. aeruginosa BAA-2795): 256 µg/mL (≈ 61.8 µM) | MIC for E. coli strains (E. coli strains): above 256 μg/mL

Compound: Bovine Serum Albumin [BSA, reference compound]
Degradation by ProtK (gel band) (Proteinase-K; 5 ng ProtK): partially degrade | Degradation by ProtK (gel band) (Proteinase-K; 20 ng ProtK): completely degrade

Compound: KWKLFKKIEKVGQNIRDGIIKAGPAVAVVGQATQIAK-NH2 (C-terminus assumed) [CecA, reference compound]
Degradation by ProtK (gel band) (Proteinase-K; 5 ng ProtK): partially degrade | Degradation by ProtK (gel band) (Proteinase-K; 20 ng ProtK): completely degrade

The next lines start with results.

MIC (P. aeruginosa BAA-2110 [1]): 50 µM (≈ 205 µg/mL)
Compound: CC[C@H](C)[C@H](NC(=O)CNC(=O)[C@H](CC(=O)O)NC(=O)[C@H](CCCNC(=N)N)NC(=O)[C@@H](NC(=O)[C@H](CC(N)=O)NC(=O)[C@H](CCC(N)=O)NC(=O)CNC(=O)[C@@H](NC(=O)[C@H](CCCCN)NC(=O)[C@H](CCC(=O)O)NC(=O)[C@@H](NC(=O)[C@H](CCCCN)NC(=O)[C@H](CCCCN)NC(=O)[C@H](Cc1ccccc1)NC(=O)[C@@H](NC(=O)[C@H](CCCCN)NC(=O)[C@H](Cc1c[nH]c2ccccc12)NC(=O)[C@H](CCCNC(=N)N)NC(=O)[C@H](CS)NC(=O)[C@@H](N)CCSC)[C@@H](C)CC)[C@@H](C)CC)C(C)C)[C@@H](C)CC)C(=O)N[C@H](C(=O)N[C@@H](CCCCN)C(=O)N[C@@H](C)C(=O)NCC(=O)N1CCC[C@H]1C(=O)N[C@@H](C)C(=O)N[C@H](C(=O)N[C@@H](C)C(=O)N[C@H](C(=O)N[C@H](C(=O)NCC(=O)N[C@@H](CCC(N)=O)C(=O)N[C@@H](C)C(=O)N[C@@H](C)C(=O)N[C@H](C(=O)N[C@H](C(=O)N[C@@H](CS)C(N)=O)[C@@H](C)CC)[C@@H](C)O)C(C)C)C(C)C)C(C)C)C(C)C [OMN7] (H-MCRWKIFKKIEKVGQNIRDGIVKAGPAVAVVGQAATIC-NH2; N-terminus and C-terminus assumed)
MBC (P. aeruginosa BAA-2110 [2]): 50 µM (≈ 205 µg/mL)

MIC for E. coli strains (E. coli strains): 16 to 32 µg/mL | MIC (E. coli CR BAA-2452): 32 µg/mL (≈ 7.67 µM) | MIC (E. coli ESBL BAA-198): 16 µg/mL (≈ 3.83 µM) | MIC [3]: 32 µg/mL (≈ 7.67 µM) | MIC (K. pneu NDM1 BAA-2473): 64 µg/mL (≈ 15.3 µM)
Compound: CC[C@H](C)[C@@H]1NC(=O)CNC(=O)[C@H](CC(=O)O)NC(=O)[C@H](CCCNC(=N)N)NC(=O)[C@H]([C@@H](C)CC)NC(=O)[C@H](CC(N)=O)NC(=O)[C@H](CCCNC(=N)N)NC(=O)CNC(=O)[C@H](CCSC)NC(=O)[C@H](CCCCN)NC(=O)[C@H](CCC(=O)O)NC(=O)[C@H]([C@@H](C)CC)NC(=O)[C@H](CCCCN)NC(=O)[C@H](CCCCN)NC(=O)[C@H](Cc2ccccc2)NC(=O)[C@H]([C@@H](C)CC)NC(=O)[C@H](CCCCN)NC(=O)[C@H](Cc2c[nH]c3ccccc23)NC(=O)[C@H](CCCNC(=N)N)NC(=O)[C@@H](NC(=O)[C@@H](N)CCSC)CSSC[C@@H](C(=O)O)NC(=O)[C@H]([C@@H](C)CC)NC(=O)[C@H](C)NC(=O)[C@H](CCCCN)NC(=O)[C@H](C)NC(=O)[C@H](CO)NC(=O)CNC(=O)[C@H](CC(C)C)NC(=O)[C@H](C(C)C)NC(=O)[C@H](CCC(=O)O)NC(=O)[C@H]([C@@H](C)CC)NC(=O)[C@H](C)NC(=O)[C@@H]2CCCN2C(=O)CNC(=O)[C@H](C)NC(=O)[C@H](C)NC(=O)[C@H](C(C)C)NC1=O [OMN8] (H-MCRWKIFKKIEKMGRNIRDGIVAAGPAIEVLGSAKAIC-OH; disulfide 2-38; N-terminus and C-terminus assumed)

MIC (P. aeruginosa BAA-2110 [1]): 40 µM (≈ 147 µg/mL) | MIC (E. coli Sens. 25922 [4]): 25 µM (≈ 91.9 µg/mL)
Compound: CC[C@H](C)[C@H](NC(=O)CNC(=O)[C@H](CCC(=O)O)NC(=O)[C@H](CO)NC(=O)[C@@H](NC(=O)[C@H](CCCNC(=N)N)NC(=O)[C@H](CCCCN)NC(=O)[C@H](CCCCN)NC(=O)[C@H](C)NC(=O)[C@H](CO)NC(=O)[C@H](CC(N)=O)NC(=O)[C@H](CCC(=O)O)NC(=O)[C@H](CC(C)C)NC(=O)[C@H](CCCCN)NC(=O)[C@H](CCCCN)NC(=O)[C@H](C)NC(=O)[C@@H](NC(=O)[C@H](CCCCN)NC(=O)[C@H](CO)NC(=O)[C@H](CC(C)C)NC(=O)[C@H](Cc1c[nH]c2ccccc12)NC(=O)[C@H](CO)NC(=O)[C@H](CS)NC(=O)[C@@H](N)CCSC)[C@@H](C)O)[C@@H](C)CC)C(=O)N[C@@H](C)C(=O)N[C@H](C(=O)N[C@@H](C)C(=O)N[C@H](C(=O)N[C@@H](CCC(N)=O)C(=O)NCC(=O)NCC(=O)N1CCC[C@H]1C(=O)N[C@@H](CCCNC(=N)N)C(=O)N[C@@H](CS)C(N)=O)[C@@H](C)CC)[C@@H](C)CC [OMN11] (H-MCSWLSKTAKKLENSAKKRISEGIAIAIQGGPRC-NH2; N-terminus and C-terminus assumed)
MBC (P. aeruginosa BAA-2110 [2]): 40 µM (≈ 147 µg/mL) | MBC (E. coli Sens. 25922 [5]): 25 µM (≈ 91.9 µg/mL)
